In this test the test system is CEM cells HIV-1 protection, formazan growth assay. Put plainly: NCI AIDS Antiviral Assay. The following applies: for IC50: measured here: growth of uninfected CEM cells. In short, it runs like this:
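Protection of CEM cells against HIV-1 was scored from cell growth (soluble formazan) across five concentrations, with parallel uninfected cells. Lack of protection may reflect toxicity.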

Molecules are shown by their SMILES. Activity calls are given as the source filed them.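 The calls were made as follows: active = compounds giving half or more protection of infected cells from virus-caused growth loss, again on retest; inactive = the rest.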 Where a SMILES comes first, the peptide text is derived from it. Where only a bound is given, the exact number is not on record here.

`CC(=O)OCC1OC(n2c(-c3ccccc3)c(N=Nc3ccccc3)c(C)c(C#N)c2=S)C(OC(C)=O)C(OC(C)=O)C1OC(C)=O` (stereo not drawn): the EC50 is over 200 µM and the IC50 was over 200 µM. On to `CCOC(=O)c1cc(C2=CCNC2=O)c(-c2cc(C)no2)[nH]1`, for which the EC50 is over 200 µM and the IC50 was 33.1 µM. As for `CC1(c2ccc3cccc(F)c3c2)OC(=O)c2ccccc21` (stereo not drawn), the outcome was inactive. `Cc1csc2nc3[nH]ncc3c(=O)n12`: the EC50 is over 200 µM and the IC50 is 97.7 µM. For `COc1cc(/C=C(\C#N)c2ccccc2)cc(OC)c1` the same measures were over 19.5 µM and over 19.5 µM.

As for `CCN(CC)CCN1CCN=c2c3cc(OC)ccc3n3cnc4ccc1c2c43`, the EC50 is over 2 µM and the IC50 was 0.0347 µM. Take `O=C1/C(=C/c2ccc(Cl)cc2)Sc2scc(-c3cccc([N+](=O)[O-])c3)[n+]21`: the EC50 was over 200 µM and the IC50 was 1.38 µM. Take `COc1ccc(OC)c(NC(=O)CCC/C(CC(=O)c2ccc(O)c(OC)c2)=N\Nc2ccc([N+](=O)[O-])cc2)c1`: the EC50 is over 13.2 µM and the IC50 was over 13.2 µM. As to `CN(C)CCCNC(=O)c1cc(NC(=O)c2cc(NC(=O)c3cc(NC(=O)c4ncccc4C(=O)O)cn3C)cn2C)cn1C`, the EC50 was over 200 µM and the IC50 was over 200 µM. For the molecule `CCOC(=O)c1c(N)[nH]c(SSc2[nH]c(N)c(C(=O)OCC)c2C(=O)OCC)c1C(=O)OCC`, the EC50 was over 200 µM and the IC50 was 0.417 µM. For `O=C1c2ccsc2C(=O)c2sccc21` the same measures were over 2 µM and 0.309 µM. In the same order, the values of `CC(C)CNC(=O)c1c(NC(=O)c2ccccc2)sc2[nH]c(=O)n(-c3ccccc3)c(=O)c12` are over 50.1 µM and over 50.1 µM. In the same order, the values of `CC=C=C(C)CN` are over 447 µM and over 447 µM. As for `CC(=O)OCC1C(OC(C)=O)C(OC(C)=O)C(OC(C)=O)P1(=O)c1ccccc1` (stereo not drawn), the EC50 is over 589 µM and the IC50 was 537 µM. In the same order, the values of `O=C(O)/C=C/C(=O)NNC(=O)/C=C/C(=O)O` are over 1100 µM and 692 µM. Turning to `CC1OC(OCC2OC(Oc3c(-c4ccc(O)c(O)c4)oc4cc(O)cc(O)c4c3=O)C(O)C(O)C2O)C(O)C(O)C1O` (stereo not drawn), the EC50 was over 200 µM, the outcome was inactive and the IC50 worked out at 1.02 µM. As for `O=c1[nH]c2cnn(-c3ccccc3)c2c(=O)n1O`, the EC50 is over 200 µM and the IC50 was 21.4 µM. In the same order, the values of `COC1/C=C\OC2(C)Oc3c(C)c(O)c4c(O)c(c(C=Nc5ccccc5C)c(O)c4c3C2=O)NC(=O)/C(C)=C\C=C/C(C)C(O)C(C)C(O)C(C)C(OC(C)=O)C1C` (stereo not drawn) are over 200 µM and 29.5 µM.

Regarding `CC(C)[C@@H]1OC(=O)[C@@H](C)NC(=O)[C@@H]2CCCN2C1=O` (HELM PEPTIDE1{[CC(C)[C@H](O[*:1])C(=O)[*:2]].P.[dA]}$PEPTIDE1,PEPTIDE1,1:R1-3:R2$$$V2.0), the EC50 was over 200 µM and the IC50 is over 200 µM.

With `Cc1cc(/C=C2\C=Cc3ccccc32)ccc1N(C)C`, the EC50 is over 38 µM and the IC50 was over 38 µM. Turning to `COCCCC(NC(=O)C(CC(C)C)NC(=O)OCc1ccc(OC)cc1)C(N)=O` (stereo not drawn), the EC50 was over 200 µM and the IC50 was 182 µM. For `CCOC(=O)Nc1cc2c(c(N)n1)N=C(CN(C)c1ccccc1)CN2` the same measures were over 34.7 µM and 0.0741 µM. For `COC(=O)c1ccc(/C=C2\CCc3ccccc3C2=O)cc1`, the EC50 was over 200 µM and the IC50 was over 200 µM. For the molecule `Cc1c([N+](=O)[O-])oc2c1C(=O)NCCC2`, the EC50 is over 437 µM and the IC50 was found to be 70.8 µM. Take `c1ccc(CSSCc2ccccc2)cc1`: the outcome was inactive.

On to `COc1ccc(/C(Cl)=C(\C#N)c2ccc(OC)c(OC)c2)cc1OC`, for which the EC50 is over 200 µM and the IC50 worked out at 58.9 µM.

Consider `CC1=N/C(=C\c2cccc(Cl)c2)C(=O)O1`, for which the EC50 is over 85.1 µM and the IC50 is over 85.1 µM.

On to `CCOc1nnc(C)o1`, for which the EC50 is over 1510 µM and the IC50 is over 1510 µM. For `CC1(C)C=C(N2CCN(C3=CC(C)(C)NC(C)(C)C3)CC2)CC(C)(C)N1`, the EC50 is over 182 µM and the IC50 is over 182 µM. `S=c1sc2ccccc2n1CN1CCN(Cc2ccccc2)CC1` displayed an EC50 of over 200 µM and an IC50 of over 200 µM. Turning to `CCOC(=O)NN1C(=O)c2cccc3c([N+](=O)[O-])ccc(c23)C1=O`, the EC50 is over 2 µM and the IC50 is 0.224 µM. In the same order, the values of `O=C(Nc1cccc(C(F)(F)F)c1)O/N=C(/Cl)CCl` are over 200 µM and 33.9 µM. Consider `COc1ccc(C2C(N)=NCC2c2ccccn2)cc1` (stereo not drawn), for which the result was inactive.

Take `COc1ccc2c(c1OC)C(=O)O[C@@H]2[C@H]1c2c(cc3c(c2OC)OCO3)CCN1C`: the EC50 is over 200 µM and the IC50 came to 24.5 µM.

Regarding `O=C(O)C1=CN(c2ccncc2)C(c2ccco2)=CC1c1ccccc1[N+](=O)[O-]` (stereo not drawn), the EC50 is over 200 µM and the IC50 is 4.79 µM. In the same order, the values of `CCN(CC)CCOC(=O)c1cc2cc3cc(C(=O)OCCN(CC)CC)c(=O)oc3c(C)c2oc1=O` are over 200 µM and over 200 µM.

For the molecule `O=C(Nc1ccc(C2=NCCN2)cc1)Nc1cc(NC(=O)Nc2ccc(C3=NCCN3)cc2)cc(C(=O)O)c1`, the EC50 was 38.9 µM and the 50% inhibitory concentration (IC50) is over 200 µM.

Turning to `O=C1CSC(c2ccccc2Cl)N1N1C(=O)CSC1c1ccccc1Cl` (stereo not drawn), the EC50 was over 200 µM and the IC50 amounted to 18.2 µM.

For the molecule `CC(CCc1ccccc1)NCC(O)n1c(/N=N/N(C)C)nc2c1c(=O)n(C)c(=O)n2C` (stereo not drawn), the EC50 was over 200 µM and the IC50 is over 200 µM.

Turning to `CC1(C)C(=O)C(=Cc2ccco2)C1=O`, the EC50 is over 100 µM and the IC50 was over 100 µM.

Regarding `CCCCCC[N+]1(C)CC2C3C=CC(C3)C2C1` (stereo not drawn), the EC50 is over 245 µM and the IC50 was over 100 µM. For `COc1ccc(N2C(=O)C3c4[nH]c5ccc(OCc6ccccc6)cc5c4C4CCC(C(C)(C)C)CC4C3C2=O)cc1` (stereo not drawn) the same measures were over 200 µM and 16.6 µM. For `COc1ccc(C(OC(=O)[C@H](O[Si](C)(C)C(C)(C)C)[C@@H](NC(=O)c2ccccc2)c2ccccc2)c2ccc(OC)cc2)cc1` the same measures were over 200 µM and 95.5 µM. For `CCOC(=O)C(=O)Nc1c(C)cccc1C(C)(C)C` the same measures were over 135 µM and over 135 µM.

On to `Cc1cc(NS(=O)(=O)c2ccc(N=Nc3cc(N=Nc4ccc(S(=O)(=O)Nc5cc(C)nc(C)n5)cc4)c4c(NC(=O)C(Cl)Cl)cccc4c3OC(=O)C(Cl)Cl)cc2)nc(C)n1` (tested in a mixture with another compound), for which the outcome was inactive. Take `Cc1ccc(S(=O)(=O)N2CCCSCCSCCCSCC2)cc1`: the EC50 was over 17.8 µM and the IC50 was over 17.8 µM. On to `CC(C)N1C(=O)NC2C1NC(=O)N2C(C)C` (stereo not drawn) (tested in a mixture with another compound), for which the EC50 was over 200 µM and the IC50 was over 200 µM. As for `Cc1ccc(C)c(NC(=O)CC2Sc3ccccc3NC2=O)c1` (stereo not drawn), the EC50 is over 30.2 µM and the 50% inhibitory concentration (IC50) is over 30.2 µM.

In general, EC50 refers to the midpoint of the concentration-response curve. A word on the IC50: it is the point on the concentration scale where inhibition reaches its midpoint. High values mean lower potency, low ones higher potency.

These data come from PubChem BioAssay AID179 (DTP/NCI, 2004).
